These results are taken from US20110229534A1, “Non-Irritating Oral Care Formulations” (The Trustees of Columbia University In The City Of New York, priority 2006, published 2011).

Like-named read-outs stand apart in the source and are kept apart here.

The subject of one data set is GCF-IL-1 beta. Conditions: used as an oral rinse; cited from earlier work.
For data set [1] the following is noted: oral rinse containing ketorolac; small number of patients; cited from earlier work.
The conditions of data set [2]: oral administration; cited from earlier work.
The next data set has as its system Streptococcus mutants. Conditions: for Growth: CFU/ml: subcultured on TSA, 24 hours. The method, then:
A culture of Streptococcus mutants (causative bacteria for dental plaque) was grown in brain/heart infusion (BHI). Tubes containing 5 ml of BHI were inoculated with 0.1 ml of 10^5 CFU bacteria/ml and incubated anaerobically at 37° C. After 24 hours the turbidity was measured; the tubes were subcultured on TSA and incubated for 24 hours and colony counts were measured.

For data set [3] the following is noted: cited from earlier work.

Take `O=C(c1ccccc1)c1ccc2n1CCC2C(=O)O` (stereo not shown) [ketorolac]: the “effect on GCF-IL-1 beta in the oral cavity” value with GCF-IL-1 beta is “reduce GCF-IL-1 beta”. For the same molecule, the “oral mucosal side effect” value in data set [1] is reported as “ulceration in the oral mucosa was observed”. Besides, the “gastric mucosal side effect” value in data set [2] is given as “gastric mucosal ulceration”.

Regarding Zinc salicylate, the “anti-Streptococcus activity (conclusion)” value in the data set on Streptococcus mutants was “exhibit anti-Streptococcus activity”. The “Growth: CFU/ml” value is reported as >10^8 CFU/ml in the data set with Streptococcus mutants (25 ug/ml), >10^6 CFU/ml in the data set with Streptococcus mutants (50 ug/ml), 10 CFU/ml in the data set with Streptococcus mutants (100 ug/ml) and 0 CFU/ml in the data set on Streptococcus mutants (200 ug/ml).

For zinc glycerate, in data set [3], the “water solubility (in words)” value was “moderately water soluble”.

Consider zinc picolinate, for which the “water solubility (in words)” value in data set [3] is “moderately water soluble”.
